Measured values from paper PMC4047925 (Journal of Agricultural and Food Chemistry, 2014).

Assay: hydroxyl radical-scavenging assay
Type: biochemical
Details: ED50 <20 μM considered active

SMILES	hydroxyl radical scavenging ED50 (concentration scavenging hydroxyl radical by 50%)
COC(=O)C(C)n1c(C=O)ccc1CO (stereo not drawn) [Compound 1, methyl 2-[2-formyl-5-(hydroxymethyl)-1H-pyrrol-1-yl]propanoate]	16.7 µM
O=c1c(O)c(-c2ccc(O)c(O)c2)oc2cc(O)cc(O)c12 [quercetin, reference compound]	1.3 µM
CC(=O)c1ccc(O)cn1 [Compound 6, 5-hydroxy-2-pyridyl methyl ketone]	>20 µM
